Experimental data reported in the NIST ThermoML archive (doi:10.1016/j.fluid.2015.05.016).
Numbers after ± are expanded uncertainties.

Legend:
[1] = 298.15 K; 101.33 kPa; Liquid; Vibrating tube method
[2] = molar heat capacity at constant pressure; conditions: 298.15 K; 101.33 kPa; Liquid; Large sample (1 g) DSC
[3] = molar heat capacity at constant pressure; xn = mol fraction of the nth substance listed; conditions: 298.15 K, 100 kPa, Liquid, Large sample (1 g) DSC
[4] = xn = mol fraction of the nth substance listed; conditions: 298.15 K, 100 kPa, Liquid, Vibrating tube method

Molecule `CCC(O)CO` (stereo not drawn) [1,2-butanediol] has a mass density [1] of 998.505 ± 0.068 kg/m3.

With `CCCC(O)CO` (stereo not drawn) [1,2-pentanediol] the “molar heat capacity at constant pressure” value [2] was 266.29 ± 4.6 J/K/mol and the mass density [1] was 966.678 ± 3.2 kg/m3.

For `CCCC(O)CO` (stereo not drawn) [1,2-pentanediol] + CO, the “molar heat capacity at constant pressure” value ([3]; x1 = 0.073) was 94.77 ± 1.5 J/K/mol, the “molar heat capacity at constant pressure” value ([3]; x1 = 0.1773) was 114.15 ± 1.8 J/K/mol and the “molar heat capacity at constant pressure” value ([3]; x1 = 0.31) was 138.7 ± 2.1 J/K/mol. The “molar heat capacity at constant pressure” value ([3]; x1 = 0.3868) was 152.56 ± 2.4 J/K/mol, the “molar heat capacity at constant pressure” value ([3]; x1 = 0.5238) was 178.04 ± 2.8 J/K/mol and the “molar heat capacity at constant pressure” value ([3]; x1 = 0.6142) was 194.86 ± 3 J/K/mol. For the same molecule, the “molar heat capacity at constant pressure” value ([3]; x1 = 0.7047) was 211.81 ± 3.3 J/K/mol, the “molar heat capacity at constant pressure” value ([3]; x1 = 0.8127) was 231.91 ± 3.6 J/K/mol and the “molar heat capacity at constant pressure” value ([3]; x1 = 0.914) was 250.63 ± 3.9 J/K/mol. For the same molecule, the “molar heat capacity at constant pressure” value ([3]; x1 = 1) was 266.29 ± 4.1 J/K/mol, the mass density ([4]; x1 = 0.073) was 832.04 ± 0.31 kg/m3 and the mass density ([4]; x1 = 0.31) was 886.031 ± 0.67 kg/m3. The mass density ([4]; x1 = 0.5238) was 929.073 ± 1.2 kg/m3, the mass density ([4]; x1 = 0.6142) was 931.181 ± 1.5 kg/m3 and the mass density ([4]; x1 = 0.7047) was 946.883 ± 1.8 kg/m3. It also gave a mass density ([4]; x1 = 0.8127) of 950.977 ± 2.3 kg/m3, a mass density ([4]; x1 = 0.914) of 961.834 ± 2.8 kg/m3 and a mass density ([4]; x1 = 1) of 966.678 ± 3.2 kg/m3.

In the case of `CC(O)CO` (stereo not drawn) [1,2-propanediol], the “molar heat capacity at constant pressure” value [2] is reported as 191.71 ± 3.2 J/K/mol and the mass density [1] is reported as 1032.55 ± 0.11 kg/m3.

For `CC(O)CO` (stereo not drawn) [1,2-propanediol] + CO, the “molar heat capacity at constant pressure” value ([3]; x1 = 0.0743) was 89.47 ± 1.4 J/K/mol, the “molar heat capacity at constant pressure” value ([3]; x1 = 0.2305) was 106.48 ± 1.6 J/K/mol and the “molar heat capacity at constant pressure” value ([3]; x1 = 0.3354) was 118.08 ± 1.8 J/K/mol. For the same molecule, the “molar heat capacity at constant pressure” value ([3]; x1 = 0.4104) was 126.35 ± 2 J/K/mol, the “molar heat capacity at constant pressure” value ([3]; x1 = 0.51) was 137.4 ± 2.1 J/K/mol and the “molar heat capacity at constant pressure” value ([3]; x1 = 0.6498) was 152.77 ± 2.4 J/K/mol. The “molar heat capacity at constant pressure” value ([3]; x1 = 0.7273) was 161.34 ± 2.5 J/K/mol, the “molar heat capacity at constant pressure” value ([3]; x1 = 0.7821) was 167.69 ± 2.6 J/K/mol and the “molar heat capacity at constant pressure” value ([3]; x1 = 0.8985) was 180.45 ± 2.8 J/K/mol. For the same molecule, the “molar heat capacity at constant pressure” value ([3]; x1 = 1) was 191.71 ± 3 J/K/mol.

In the case of `CO` [methanol], the “molar heat capacity at constant pressure” value [2] is reported as 81.37 ± 1.4 J/K/mol and the mass density [1] is reported as 786.585 ± 0.24 kg/m3.

With `CO` [methanol] + CC(O)CO the “molar heat capacity at constant pressure” value ([3]; x2 = 0) was 81.37 ± 1.3 J/K/mol.

For `CO` [methanol] + CCCC(O)CO, the “molar heat capacity at constant pressure” value ([3]; x2 = 0) was 81.37 ± 1.3 J/K/mol and the mass density ([4]; x2 = 0) was 786.585 ± 0.24 kg/m3.
